Patent US10875875B2, “Propionic acid derivatives and methods of use thereof” (Aviara Pharmaceuticals, Inc., priority 2017, dated 2020)

target: α4β1 (Homo sapiens, UniProt P05556+P13612); assay: α4β1 integrin inhibition, IC50; assay type: binding; conditions: read-out: α4β1 IC50
Sequence (P13612 34-1032): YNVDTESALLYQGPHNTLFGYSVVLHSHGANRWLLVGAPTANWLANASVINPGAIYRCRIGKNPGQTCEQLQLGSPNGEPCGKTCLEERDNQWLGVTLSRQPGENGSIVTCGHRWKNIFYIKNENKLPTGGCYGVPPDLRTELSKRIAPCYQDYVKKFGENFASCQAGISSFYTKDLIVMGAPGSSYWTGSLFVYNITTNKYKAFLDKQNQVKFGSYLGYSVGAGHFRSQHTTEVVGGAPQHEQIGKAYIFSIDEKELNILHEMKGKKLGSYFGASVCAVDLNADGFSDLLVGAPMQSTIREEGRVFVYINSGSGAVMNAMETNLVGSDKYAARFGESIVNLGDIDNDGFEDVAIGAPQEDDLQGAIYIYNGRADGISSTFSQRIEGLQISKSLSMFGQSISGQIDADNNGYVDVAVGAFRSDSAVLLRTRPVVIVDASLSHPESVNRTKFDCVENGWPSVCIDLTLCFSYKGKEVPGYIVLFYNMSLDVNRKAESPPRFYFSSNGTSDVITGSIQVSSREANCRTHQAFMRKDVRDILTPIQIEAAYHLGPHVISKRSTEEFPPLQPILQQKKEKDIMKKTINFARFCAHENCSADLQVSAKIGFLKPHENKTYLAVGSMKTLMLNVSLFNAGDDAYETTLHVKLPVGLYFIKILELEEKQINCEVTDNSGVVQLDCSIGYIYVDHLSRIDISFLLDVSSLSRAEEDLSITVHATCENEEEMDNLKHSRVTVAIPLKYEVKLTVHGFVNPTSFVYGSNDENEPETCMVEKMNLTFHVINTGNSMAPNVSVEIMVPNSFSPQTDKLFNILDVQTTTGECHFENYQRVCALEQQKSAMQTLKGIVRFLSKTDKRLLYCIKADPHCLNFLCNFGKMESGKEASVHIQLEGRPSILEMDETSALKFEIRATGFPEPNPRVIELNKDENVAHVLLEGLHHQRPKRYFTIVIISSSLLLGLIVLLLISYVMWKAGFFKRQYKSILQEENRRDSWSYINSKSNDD
Sequence (P05556 21-798): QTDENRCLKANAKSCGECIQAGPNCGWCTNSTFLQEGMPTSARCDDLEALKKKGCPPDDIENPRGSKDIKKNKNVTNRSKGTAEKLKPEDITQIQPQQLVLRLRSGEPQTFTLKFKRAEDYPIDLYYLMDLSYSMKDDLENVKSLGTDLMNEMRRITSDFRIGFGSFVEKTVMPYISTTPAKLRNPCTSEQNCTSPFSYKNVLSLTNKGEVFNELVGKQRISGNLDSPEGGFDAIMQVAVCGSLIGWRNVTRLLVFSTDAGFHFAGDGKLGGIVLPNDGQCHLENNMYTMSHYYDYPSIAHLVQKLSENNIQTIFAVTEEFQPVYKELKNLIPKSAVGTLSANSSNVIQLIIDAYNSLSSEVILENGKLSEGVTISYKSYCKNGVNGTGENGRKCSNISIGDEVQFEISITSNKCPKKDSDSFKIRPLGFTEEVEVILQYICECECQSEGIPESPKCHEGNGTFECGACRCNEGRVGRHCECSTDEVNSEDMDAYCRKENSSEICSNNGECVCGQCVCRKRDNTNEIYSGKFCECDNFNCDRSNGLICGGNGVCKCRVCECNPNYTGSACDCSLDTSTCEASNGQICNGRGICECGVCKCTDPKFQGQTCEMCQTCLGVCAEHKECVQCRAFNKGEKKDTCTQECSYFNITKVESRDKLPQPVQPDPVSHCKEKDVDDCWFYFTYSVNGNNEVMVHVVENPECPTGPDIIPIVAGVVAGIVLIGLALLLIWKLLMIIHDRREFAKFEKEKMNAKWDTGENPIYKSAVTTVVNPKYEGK

Row | IC50 | SMILES
1 | < 0.02 µM | CC(=O)c1cccc(-c2cccc(C(CC(=O)O)NC(=O)Nc3c(O)c(C)cn(C)c3=O)c2)c1 (stereo not drawn) [1-626, sodium 3-(3′-acetylbiphenyl-3-yl)-3-(3-(1,5-dimethyl-4-oxido-2-oxo-1,2-dihydropyridin-3-yl)ureido)propanoate]
2 | < 0.2 µM | CCn1cc(C)c(O)c(NC(=O)N[C@@H](CC(=O)O)c2cccc(-c3ccccc3)c2)c1=O [1-438, sodium (S)-3-(biphenyl-3-yl)-3-(3-(1-ethyl-5-methyl-4-oxido-2-oxo-1,2-dihydropyridin-3-yl)ureido)propanoate]
3 | < 0.02 µM | Cc1cc(O)c(NC(=O)N[C@@H](CC(=O)O)c2cc(-c3cccc(OC(F)(F)F)c3)ccc2F)c(=O)n1C [1-595, sodium (S)-3-(3-(1,6-dimethyl-4-oxido-2-oxo-1,2-dihydropyridin-3-yl)ureido)-3-(4-fluoro-3′-(trifluoromethoxy)biphenyl-3-yl)propanoate]
4 | < 0.2 µM | Cc1cn(C)c(=O)c(NC(=O)NC(CC(=O)O)c2cccc(-c3cccc(Cl)c3)c2)c1O (stereo not drawn) [1-472, sodium 3-(3′-chlorobiphenyl-3-yl)-3-(3-(1,5-dimethyl-4-oxido-2-oxo-1,2-dihydropyridin-3-yl)ureido)propanoate]
5 | > 0.2 µM | Cc1cn(C)c(=O)c(NC(=O)N[C@@H](CC(=O)O)c2cccn2-c2ccccc2)c1O [1-498, sodium (S)-3-(3-(1,5-dimethyl-4-oxido-2-oxo-1,2-dihydropyridin-3-yl)ureido)-3-(1-phenyl-1H-pyrrol-2-yl)propanoate]
6 | < 0.02 µM | Cc1cc(O)c(NC(=O)N[C@@H](CC(=O)O)c2cc(F)cc(-c3ccc(F)cc3F)c2)c(=O)n1C [1-632, sodium (S)-3-(3-(1,6-dimethyl-4-oxido-2-oxo-1,2-dihydropyridin-3-yl)ureido)-3-(2′,4′,5-trifluorobiphenyl-3-yl)propanoate]
7 | < 0.2 µM | COc1ccc(C)c(-c2cccc([C@H](CC(=O)O)NC(=O)Nc3c(O)c(C)cn(C)c3=O)c2)c1 [1-490, sodium (S)-3-(3-(1,5-dimethyl-4-oxido-2-oxo-1,2-dihydropyridin-3-yl)ureido)-3-(5′-methoxy-2′-methylbiphenyl-3-yl)propanoate]
8 | < 0.02 µM | Cc1noc(C)c1-c1ccc([C@H](CC(=O)O)NC(=O)Nc2c(O)ccn(C)c2=O)s1 [1-608, sodium (S)-3-(5-(3,5-dimethylisoxazol-4-yl)thiophen-2-yl)-3-(3-(1-methyl-4-oxido-2-oxo-1,2-dihydropyridin-3-yl)ureido)propanoate]
9 | < 0.02 µM | Cn1ccc(O)c(NC(=O)N[C@@H](CC(=O)O)c2cncc(-c3ccccc3)c2)c1=O [1-641, sodium (S)-3-(3-(1-methyl-4-oxido-2-oxo-1,2-dihydropyridin-3-yl)ureido)-3-(5-phenylpyridin-3-yl)propanoate]
10 | < 0.02 µM | Cc1cccc(C)c1-c1ccc([C@H](CC(=O)O)NC(=O)Nc2c(O)cc(C)n(C)c2=O)s1 [1-588, sodium (S)-3-(3-(1,6-dimethyl-4-oxido-2-oxo-1,2-dihydropyridin-3-yl)ureido)-3-(5-(2,6-dimethylphenyl)thiophen-2-yl)propanoate]
11 | < 0.02 µM | Cn1ccc(O)c(NC(=O)N[C@@H](CC(=O)O)c2cccc(-n3ncc4ccccc43)c2)c1=O [1-518, sodium (S)-3-(3-(1H-indazol-1-yl)phenyl)-3-(3-(1-methyl-4-oxido-2-oxo-1,2-dihydropyridin-3-yl)ureido)propanoate]
12 | < 0.02 µM | Cn1ccc(O)c(NC(=O)N[C@@H](CC(=O)O)c2ccc(F)c(-c3c(F)cccc3F)c2)c1=O [1-546, sodium (S)-3-(3-(1-methyl-4-oxido-2-oxo-1,2-dihydropyridin-3-yl)ureido)-3-(2′,6,6′-trifluorobiphenyl-3-yl)propanoate]
13 | < 0.2 µM | COc1cccc(OC)c1-c1cccc([C@H](CC(=O)O)NC(=O)Nc2c(O)c(C)cn(C)c2=O)c1 [1-479, sodium (S)-3-(2′,6′-dimethoxybiphenyl-3-yl)-3-(3-(1,5-dimethyl-4-oxido-2-oxo-1,2-dihydropyridin-3-yl)ureido)propanoate]
14 | < 0.2 µM | COc1ccc(-c2cccc([C@H](CC(=O)O)NC(=O)Nc3c(O)c(C)cn(C)c3=O)c2)cc1 [1-645, sodium (S)-3-(3-(1,5-dimethyl-4-oxido-2-oxo-1,2-dihydropyridin-3-yl)ureido)-3-(4′-methoxybiphenyl-3-yl)propanoate]
15 | < 0.02 µM | Cc1cn(C)c(=O)c(NC(=O)N[C@@H](CC(=O)O)c2cccc(-c3cccc(F)c3)c2)c1O [1-465, sodium (S)-3-(3-(1,5-dimethyl-4-oxido-2-oxo-1,2-dihydropyridin-3-yl)ureido)-3-(3′-fluorobiphenyl-3-yl)propanoate]
16 | < 0.02 µM | Cc1ccc([C@H](CC(=O)O)NC(=O)Nc2c(O)cc(C)n(C)c2=O)cc1-c1cccc(OC(F)(F)F)c1 [1-577, sodium (S)-3-(3-(1,6-dimethyl-4-oxido-2-oxo-1,2-dihydropyridin-3-yl)ureido)-3-(6-methyl-3′-(trifluoromethoxy)biphenyl-3-yl)propanoate]
17 | < 0.2 µM | COc1cccc(-c2cccc([C@H](CC(=O)O)NC(=O)Nc3c(O)c(C)cn(C)c3=O)c2)c1 [1-460, sodium (S)-3-(3-(1,5-dimethyl-4-oxido-2-oxo-1,2-dihydropyridin-3-yl)ureido)-3-(3′-methoxybiphenyl-3-yl)propanoate]

Row | IC50 | SMILES
18 | < 0.2 µM | Cc1ccc(-c2cccc([C@H](CC(=O)O)NC(=O)Nc3c(O)c(C)cn(C)c3=O)c2)cc1 [1-450, sodium (S)-3-(3-(1,5-dimethyl-4-oxido-2-oxo-1,2-dihydropyridin-3-yl)ureido)-3-(4′-methylbiphenyl-3-yl)propanoate]
19 | < 0.02 µM | COc1ccc([C@H](CC(=O)O)NC(=O)Nc2c(O)ccn(C)c2=O)cc1-c1cccc(Cl)c1 [1-534, sodium (S)-3-(3′-chloro-6-methoxybiphenyl-3-yl)-3-(3-(1-methyl-4-oxido-2-oxo-1,2-dihydropyridin-3-yl)ureido)propanoate]
20 | < 0.02 µM | COc1cccc(-c2cc([C@H](CC(=O)O)NC(=O)Nc3c(O)cc(C)n(C)c3=O)ccc2OC)c1 [1-551, sodium (S)-3-(3′,6-dimethoxybiphenyl-3-yl)-3-(3-(1,6-dimethyl-4-oxido-2-oxo-1,2-dihydropyridin-3-yl)ureido)propanoate]
21 | < 0.02 µM | COc1cccc(-c2cc(F)cc([C@H](CC(=O)O)NC(=O)Nc3c(O)ccn(C)c3=O)c2)c1 [1-604, sodium (S)-3-(5-fluoro-3′-methoxybiphenyl-3-yl)-3-(3-(1-methyl-4-oxido-2-oxo-1,2-dihydropyridin-3-yl)ureido)propanoate]
22 | < 0.02 µM | COc1cccc(-c2ccc(F)c([C@H](CC(=O)O)NC(=O)Nc3c(O)ccn(C)c3=O)c2)c1 [1-593, sodium (S)-3-(4-fluoro-3′-methoxybiphenyl-3-yl)-3-(3-(1-methyl-4-oxido-2-oxo-1,2-dihydropyridin-3-yl)ureido)propanoate]
23 | < 0.2 µM | Cc1cn(C)c(=O)c(NC(=O)NC(CC(=O)O)c2cccc(-c3cc(Cl)c(F)cc3F)c2)c1O (stereo not drawn) [1-503, sodium 3-(5′-chloro-2′,4′-difluorobiphenyl-3-yl)-3-(3-(1,5-dimethyl-4-oxido-2-oxo-1,2-dihydropyridin-3-yl)ureido)propanoate]
24 | < 0.02 µM | Cc1ccccc1-c1cccc([C@H](CC(=O)O)NC(=O)Nc2c(O)ccn(C)c2=O)c1 [1-598, sodium (S)-3-(3-(1-methyl-4-oxido-2-oxo-1,2-dihydropyridin-3-yl)ureido)-3-(2′-methylbiphenyl-3-yl)propanoate]
25 | < 0.02 µM | Cn1ccc(O)c(NC(=O)N[C@@H](CC(=O)O)c2cc(-c3cccc(Cl)c3)cs2)c1=O [1-530, sodium (S)-3-(4-(3-chlorophenyl)thiophen-2-yl)-3-(3-(1-methyl-4-oxido-2-oxo-1,2-dihydropyridin-3-yl)ureido)propanoate]
26 | < 0.02 µM | Cc1ccccc1-c1ccc([C@H](CC(=O)O)NC(=O)Nc2c(O)cc(C)n(C)c2=O)cc1 [1-637, sodium (S)-3-(3-(1,6-dimethyl-4-oxido-2-oxo-1,2-dihydropyridin-3-yl)ureido)-3-(2′-methylbiphenyl-4-yl)propanoate]
27 | < 0.02 µM | Cn1ncc(O)c(NC(=O)N[C@@H](CC(=O)O)c2cccc(-c3ccc(F)cc3F)c2)c1=O [1-549, sodium (S)-3-(2′,4′-difluorobiphenyl-3-yl)-3-(3-(2-methyl-5-oxido-3-oxo-2,3-dihydropyridazin-4-yl)ureido)propanoate]
28 | < 0.02 µM | Cc1ccc(C)c(-c2cccc([C@H](CC(=O)O)NC(=O)Nc3c(O)c(C)cn(C)c3=O)c2)c1 [1-459, sodium (S)-3-(3-(1,5-dimethyl-4-oxido-2-oxo-1,2-dihydropyridin-3-yl)ureido)-3-(2′,5′-dimethylbiphenyl-3-yl)propanoate]
29 | < 0.02 µM | Cc1cc(-c2ccc(F)cc2F)cc([C@H](CC(=O)O)NC(=O)Nc2c(O)cc(C)n(C)c2=O)c1 [1-575, sodium (S)-3-(2′,4′-difluoro-5-methylbiphenyl-3-yl)-3-(3-(1,6-dimethyl-4-oxido-2-oxo-1,2-dihydropyridin-3-yl)ureido)propanoate]
30 | < 0.02 µM | Cn1ccc(O)c(NC(=O)N[C@@H](CC(=O)O)c2cccc(-c3cccc(Cl)c3)c2)c1=O [1-506, sodium (S)-3-(3′-chlorobiphenyl-3-yl)-3-(3-(1-methyl-4-oxido-2-oxo-1,2-dihydropyridin-3-yl)ureido)propanoate]
31 | < 0.02 µM | Cc1cc(O)c(NC(=O)N[C@@H](CC(=O)O)c2cccc(-c3cccc(Cl)c3)c2)c(=O)n1C [1-556, sodium (S)-3-(3′-chlorobiphenyl-3-yl)-3-(3-(1,6-dimethyl-4-oxido-2-oxo-1,2-dihydropyridin-3-yl)ureido)propanoate]
32 | > 0.2 µM | Cn1ccc(O)c(NC(=O)N[C@@H](CC(=O)O)c2cc(-c3ccccc3)cc(C(F)(F)F)c2)c1=O [1-618, sodium (S)-3-(3-(1-methyl-4-oxido-2-oxo-1,2-dihydropyridin-3-yl)ureido)-3-(5-(trifluoromethyl)biphenyl-3-yl)propanoate]
33 | < 0.02 µM | Cc1noc(C)c1-c1cccc([C@H](CC(=O)O)NC(=O)Nc2c(O)cc(C)n(C)c2=O)c1 [1-609, sodium (S)-3-(3-(1,6-dimethyl-4-oxido-2-oxo-1,2-dihydropyridin-3-yl)ureido)-3-(3-(3,5-dimethylisoxazol-4-yl)phenyl)propanoate]
